# According to patent publication US20250136606A1, “MODULATORS OF TRPML, THEIR COMPOSITIONS AND METHODS OF USE” (Caraway Therapeutics, Inc., priority 2021, published 2025):
# Target: TRPML1 (Homo sapiens, UniProt Q9GZU1)
# Assay: Fluorescent TRPML1 assay (Fluo4-AM calcium fluorescence in doxycycline-induced HEK-293 Trex cells)
# Format: cell-based
# Settings: fluorescent calcium assay
# Description: HEK-293 Trex cells were stably transfected with a construct consisting of the human coding sequence for TRPML1 cloned into the […] plasmid pCDNA5 T/O. Mutations were introduced into the TRPML1 sequence to facilitate expression on the cell surface (Silvia Vergarajauregui, Rosa Puertollano, Traffic. 2006 March; 7(3): 337-353). Briefly, the cells are cultured in 150 mm round tissue culture dishes containing 20 mL of media. The day before the assay the cells are rinsed with DPBS-Ca—Mg and then treated briefly with Trypsin-EDTA. The Trypsin-EDTA is diluted with growth media, and cells are counted. 38×10^6 cells are re-plated into 150 mm round tissue culture dishes in media containing 0.5 ug/mL doxycycline to induce expression of hTRPML1.
# The day of the experiment cells are lifted from the plates as above and collected by centrifugation. The cells are then suspended in dye loading buffer consisting of Ringer's solution supplemented with 0.1% Pluronic Acid and 1 micromolar Fluo4-AM dye. Cells are loaded for ˜60 minutes in the dark with occasional mixing. The cells are collected by centrifugation, the loading media aspirated, and the cells resuspended in 25 mL Ringer's solution and incubated ˜60 minutes in the dark. The cells are again collected by centrifugation, rinsed in Ringer's Solution and resuspended to […] in modified Ringer's solution containing 10 mM calcium.
# Compounds are dissolved to a concentration of 10 millimolar with DMSO. Compound plates are created by dispensing compounds into 384 well black wall clear bottom plates (Greiner 781091). Positive and negative controls are included on each plate. Typically, different amounts of each compound are tested ranging from 100 nanoMoles (20 micromolar final concentration) decreasing in half-log steps to 31 picoMoles (6 nanomolar final concentration). Each concentration is typically tested in triplicate.
# 50 microliters of dye-loaded cells are dispensed into each well of the compound assay plate created above. The fluorescence in each well is then determined with an excitation wavelength of 480 nm and an emission wavelength of 540 nm using either a Molecular Devices SpectraMax multimode plate reader or a Hamamatsu FDSS/uCell plate imager.
# The resulting fluorescence for each well is exported as an ascii file and loaded into our LIMS for analysis. The percent activity of each compound at each concentration is determined by comparison to the positive and negative control wells included in each plate.
# EC50 values were calculated using a non-linear regression of Prism. In the table, “A” indicates an EC50 of less than 100 nM, “B” indicates an EC50 range from 100 nM to 500 nM; “C” indicates an EC50 range from 500 nM to 2 μM; and “D” indicates an EC50 greater than 2 μM.
# Sequence of TRPML1 (Q9GZU1 whole entry L15A/L16A/L577A/L578A, form open): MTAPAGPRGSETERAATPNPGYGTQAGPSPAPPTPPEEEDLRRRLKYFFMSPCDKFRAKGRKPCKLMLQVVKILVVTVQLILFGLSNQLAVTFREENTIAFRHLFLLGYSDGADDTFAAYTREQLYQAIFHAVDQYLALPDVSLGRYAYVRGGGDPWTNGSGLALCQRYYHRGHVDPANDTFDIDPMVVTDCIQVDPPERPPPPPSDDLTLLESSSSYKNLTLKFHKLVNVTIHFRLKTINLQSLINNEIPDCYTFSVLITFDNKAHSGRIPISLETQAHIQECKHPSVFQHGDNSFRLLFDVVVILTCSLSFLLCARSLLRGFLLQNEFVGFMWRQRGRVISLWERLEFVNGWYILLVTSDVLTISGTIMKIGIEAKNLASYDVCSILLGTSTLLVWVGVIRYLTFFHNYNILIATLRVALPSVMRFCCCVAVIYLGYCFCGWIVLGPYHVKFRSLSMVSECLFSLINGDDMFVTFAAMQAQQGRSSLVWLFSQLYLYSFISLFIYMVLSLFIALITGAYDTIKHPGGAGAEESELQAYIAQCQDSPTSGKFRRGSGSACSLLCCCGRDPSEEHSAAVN
row,Structure (SMILES),EC50
1,"CC(C)(C)OC(=O)N1CCN(c2ncnc3c2c(C2CC2)cn3-c2cc(F)cc(F)c2)C[C@@H]1C(F)(F)F [Compound 276, tert-butyl (R)-4-(5-cyclopropyl-7-(3,5-difluorophenyl)-7H-pyrrolo[2,3-d]pyrimidin-4-yl)-2-(trifluoromethyl)piperazine-1-carboxylate]",< 100 nM
2,"C[C@@H]1CN(c2ncnc3c2c(N2CCCC2)cn3-c2cccc(C#N)c2)CCN1C(=O)OC(C)(C)C [Compound 277, tert-butyl (R)-4-(7-(3-cyanophenyl)-5-(pyrrolidin-1-yl)-7H-pyrrolo[2,3-d]pyrimidin-4-yl)-2-methylpiperazine-1-carboxylate]",< 100 nM
3,"COc1cccc(-n2cc(-c3ccccn3)c3c(N4CCN(C(=O)OC(C)(C)C)C[C@@H]4C)ncnc32)c1 [Compound 278, tert-butyl (S)-4-(7-(3-methoxyphenyl)-5-(pyridin-2-yl)-7H-pyrrolo[2,3-d]pyrimidin-4-yl)-3-methylpiperazine-1-carboxylate]",500 to 2000 nM
4,"C[C@H]1CN(C(=O)OC(C)(C)C)CCN1c1ncnc2c1c(-c1ccccn1)cn2-c1cccc(OC(F)(F)F)c1 [Compound 279, tert-butyl (S)-3-methyl-4-(5-(pyridin-2-yl)-7-(3-(trifluoromethoxy)phenyl)-7H-pyrrolo[2,3-d]pyrimidin-4-yl)piperazine-1-carboxylate]",100 to 500 nM
5,"C[C@H]1CN(C(=O)OC(C)(C)C)CCN1c1ncnc2c1c(-c1ccccn1)cn2-c1cccc(C#N)c1 [Compound 280, tert-butyl (S)-4-(7-(3-cyanophenyl)-5-(pyridin-2-yl)-7H-pyrrolo[2,3-d]pyrimidin-4-yl)-3-methylpiperazine-1-carboxylate]",100 to 500 nM
6,"C[C@H]1CN(C(=O)OC(C)(C)C)CCN1c1ncnc2c1c(-c1cccnc1)cn2-c1cccc(OC(F)(F)F)c1 [Compound 281, tert-butyl-(S)-3-methyl-4-(5-(pyridin-3-yl)-7-(3-(trifluoromethoxy)phenyl)-7H-pyrrolo [2,3-d]pyrimidin-4-yl)piperazine-1-carboxylate]",< 100 nM
7,"C[C@H]1CN(C(=O)OC(C)(C)C)CCN1c1ncnc2c1c(-c1cccnc1)cn2-c1cccc(C#N)c1 [Compound 282, tert-butyl-(S)-4-(7-(3-cyanophenyl)-5-(pyridin-3-yl)-7H-pyrrolo[2,3-d]pyrimidin-4-yl)-3-methylpiperazine-1-carboxylate]",100 to 500 nM
8,"C[C@H]1CN(C(=O)OC(C)(C)C)CCN1c1ncnc2c1c(C1CCOCC1)nn2-c1cccc(Cl)c1 [Compound 284, tert-butyl (S)-4-(1-(3-chlorophenyl)-3-(tetrahydro-2H-pyran-4-yl)-1H-pyrazolo[3,4-d]pyrimidin-4-yl)-3-methylpiperazine-1-carboxylate]",500 to 2000 nM
9,"C[C@H]1CN(C(=O)OC(C)(C)C)CCN1c1ncnc2c1c(N1CCCC1)cn2-c1cccc(C#N)c1 [Compound 285, tert-butyl (S)-4-(7-(3-cyanophenyl)-5-(pyrrolidin-1-yl)-7H-pyrrolo[2,3-d]pyrimidin-4-yl)-3-methylpiperazine-1-carboxylate]",< 100 nM
10,"C[C@@H]1CCCN1c1cn(-c2cccc(Cl)c2)c2ncnc(N3CCN(C(=O)OC(C)(C)C)C[C@@H]3C)c12 [Compound 286, tert-butyl (S)-4-(7-(3-chlorophenyl)-5-((R)-2-methylpyrrolidin-1-yl)-7H-pyrrolo[2,3-d]pyrimidin-4-yl)-3-methylpiperazine-1-carboxylate]",100 to 500 nM
11,"C[C@@H]1CN(c2ncnc3c2c(N2CCCCC2)cn3-c2cccc(Cl)c2)CCN1C(=O)OC(C)(C)C [Compound 287, tert-butyl (R)-4-(7-(3-chlorophenyl)-5-(piperidin-1-yl)-7H-pyrrolo[2,3-d]pyrimidin-4-yl)-2-methylpiperazine-1-carboxylate]",< 100 nM
12,"COc1cc(F)cc(-n2cc(C3CC3)c3c(N4CCN(C(=O)OC(C)(C)C)C[C@@H]4C)ncnc32)c1 [Compound 288, tert-butyl (S)-4-(5-cyclopropyl-7-(3-fluoro-5-methoxyphenyl)-7H-pyrrolo[2,3-d]pyrimidin-4-yl)-3-methylpiperazine-1-carboxylate]",100 to 500 nM
13,"COc1cc(OC)cc(-n2cc(C3CC3)c3c(N4CCN(C(=O)OC(C)(C)C)C[C@@H]4C)ncnc32)c1 [Compound 289, tert-butyl (S)-4-(5-cyclopropyl-7-(3,5-dimethoxyphenyl)-7H-pyrrolo[2,3-d]pyrimidin-4-yl)-3-methylpiperazine-1-carboxylate]",100 to 500 nM
14,"C[C@H]1CN(C(=O)OC(C)(C)C)CCN1c1ncnc2c1c(C1CC1)cn2-c1ccc(F)c(C#N)c1 [Compound 290, tert-butyl (S)-4-(7-(3-cyano-4-fluorophenyl)-5-cyclopropyl-7H-pyrrolo[2,3-d]pyrimidin-4-yl)-3-methylpiperazine-1-carboxylate]",< 100 nM
15,"C[C@H]1CN(C(=O)OC(C)(C)C)CCN1c1ncnc2c1c(C1CC1)cn2-c1cc(F)cc(C#N)c1 [Compound 291, tert-butyl (S)-4-(7-(3-cyano-5-fluorophenyl)-5-cyclopropyl-7H-pyrrolo[2,3-d]pyrimidin-4-yl)-3-methylpiperazine-1-carboxylate]",< 100 nM
16,"C[C@H]1CN(C(=O)OC(C)(C)C)CCN1c1ncnc2c1c(C1CC1)cn2-c1cc(C#N)cc(C#N)c1 [Compound 292, tert-butyl (S)-4-(5-cyclopropyl-7-(3,5-dicyanophenyl)-7H-pyrrolo[2,3-d]pyrimidin-4-yl)-3-methylpiperazine-1-carboxylate]",100 to 500 nM
17,"COc1cccc(-n2cc(-c3nccnc3C)c3c(N4CCN(C(=O)OC(C)(C)C)C[C@@H]4C)ncnc32)c1 [Compound 293, tert-butyl (S)-4-(7-(3-methoxyphenyl)-5-(3-methylpyrazin-2-yl)-7H-pyrrolo[2,3-d]pyrimidin-4-yl)-3-methylpiperazine-1-carboxylate]",500 to 2000 nM
18,"Cc1nccnc1-c1cn(-c2cccc(C#N)c2)c2ncnc(N3CCN(C(=O)OC(C)(C)C)C[C@@H]3C)c12 [Compound 294, tert-butyl (S)-4-(7-(3-cyanophenyl)-5-(3-methylpyrazin-2-yl)-7H-pyrrolo[2,3-d]pyrimidin-4-yl)-3-methylpiperazine-1-carboxylate]",500 to 2000 nM
19,"COc1cccc(-n2cc(-c3cnccn3)c3c(N4CCN(C(=O)OC(C)(C)C)C[C@@H]4C)ncnc32)c1 [Compound 295, tert-butyl (S)-4-(7-(3-methoxyphenyl)-5-(pyrazin-2-yl)-7H-pyrrolo[2,3-d]pyrimidin-4-yl)-3-methylpiperazine-1-carboxylate]",500 to 2000 nM
20,"C[C@H]1CN(C(=O)OC(C)(C)C)CCN1c1ncnc2c1c(-c1cnccn1)cn2-c1cccc(OC(F)(F)F)c1 [Compound 296, tert-butyl (S)-3-methyl-4-(5-(pyrazin-2-yl)-7-(3-(trifluoromethoxy)phenyl)-7H-pyrrolo[2,3-d]pyrimidin-4-yl)piperazine-1-carboxylate]",100 to 500 nM
21,"C[C@H]1CN(C(=O)OC(C)(C)C)CCN1c1ncnc2c1c(-c1cnccn1)cn2-c1cccc(C#N)c1 [Compound 297, tert-butyl (S)-4-(7-(3-cyanophenyl)-5-(pyrazin-2-yl)-7H-pyrrolo[2,3-d]pyrimidin-4-yl)-3-methylpiperazine-1-carboxylate]",500 to 2000 nM
22,"C[C@H]1CN(C(=O)OC(C)(C)C)CCN1c1ncnc2c1c(N1CCC[C@H]1CO)cn2-c1cccc(Cl)c1 [Compound 298, tert-butyl (S)-4-(7-(3-chlorophenyl)-5-((S)-2-(hydroxymethyl)pyrrolidin-1-yl)-7H-pyrrolo[2,3-d]pyrimidin-4-yl)-3-methylpiperazine-1-carboxylate]",500 to 2000 nM
23,"C[C@H]1CN(C(=O)OC(C)(C)C)CCN1c1ncnc2c1c(N1CCCC1)cn2-c1cc(F)c(F)c(F)c1 [Compound 356, tert-butyl (S)-3-methyl-4-(5-(pyrrolidin-1-yl)-7-(3,4,5-trifluorophenyl)-7H-pyrrolo[2,3-d]pyrimidin-4-yl)piperazine-1-carboxylate]",< 100 nM
24,"C[C@H]1CN(C(=O)OC(C)(C)C)CCN1c1ncnc2c1c(C1CC1)nn2-c1cccc(C#N)c1 [Compound 357, tert-butyl (S)-4-(1-(3-cyanophenyl)-3-cyclopropyl-1H-pyrazolo[3,4-d]pyrimidin-4-yl)-3-methylpiperazine-1-carboxylate]",< 100 nM
25,"C[C@H]1CN(C(=O)OC(C)(C)C)CCN1c1ncnc2c1c(N1CCC(C)(C)C1)cn2-c1cccc(C#N)c1 [Compound 358, tert-Butyl (S)-4-(7-(3-cyanophenyl)-5-(3,3-dimethylpyrrolidin-1-yl)-7H-pyrrolo[2,3-d]pyrimidin-4-yl)-3-methylpiperazine-1-carboxylate]",< 100 nM
